According to patent US7638535B2, “4-(aminomethyl)-piperidine benzamides as 5HT4-antagonists” (Janssen Pharmaceutica N.V., priority 2003, dated 2009):

target: T1, h5-HT4b (Homo sapiens, UniProt Q13639); experiment: 5HT4 antagonism: [3H]GR113808 binding to membranes of h5-HT4b-HEK 293 clone 9 cells; details: displacement of [3H]GR113808 0.1 nM, h5-HT4b-HEK 293 membranes, 30 min at 25° C.; read-out: pIC50 (5HT4 antagonistic data) (converted)
T1 construct: expressed in transfected cells; host or cells: HEK 293 (clone 9), membrane preparation
Procedure: h5-HT4b-HEK 293 clone 9 cells were cultured in 150 mm Petri dishes and washed twice with cold PBS. The cells were then scraped from the plates and suspended in 50 mM Tris-HCl buffer, pH 7.4 and harvested by centrifugation at 23,500 rpm for 10 minutes. The pellet was resuspended in 5 mM Tris-HCl, pH 7.4 and homogenized with an Ultra Turrax homogenizer. The membranes were collected by centrifugation at 30,000 rpm for 20 min, resuspended in 50 mM Tris-HCl pH 7.4 and stored at −80° C. For the experiment, assay mixtures (0.5 ml) contained 50 μl of the tritiated ligand (5-HT4 antagonist [^3H]GR113808 0.1 nM) and 0.4 ml membrane preparation (15 μg protein/ml). 50 μl of 10% DMSO was added for total binding. 50 μl of 1 μM of (+)-trans-(1-butyl-3-hydroxy-4-piperidinyl)methyl 8-amino-7-chloro-2,3-dihydro-1,4-benzodioxin-5-carboxylate (a proprietary 5HT4 agonist of Janssen Pharmaceutica) was added for determination of non-specific binding.
The [^3H]GR113808 assay buffer was 50 mM HEPES-NaOH, pH 7.4. The mixtures were incubated for 30 min at 25° C. The incubation was terminated by filtration over a Unifilter 96 GF/B presoaked in 0.1% polyethylenimine, followed by six washing steps with 50 mM HEPES-NaOH, pH 7.4.

T1 sequence (Q13639 whole entry): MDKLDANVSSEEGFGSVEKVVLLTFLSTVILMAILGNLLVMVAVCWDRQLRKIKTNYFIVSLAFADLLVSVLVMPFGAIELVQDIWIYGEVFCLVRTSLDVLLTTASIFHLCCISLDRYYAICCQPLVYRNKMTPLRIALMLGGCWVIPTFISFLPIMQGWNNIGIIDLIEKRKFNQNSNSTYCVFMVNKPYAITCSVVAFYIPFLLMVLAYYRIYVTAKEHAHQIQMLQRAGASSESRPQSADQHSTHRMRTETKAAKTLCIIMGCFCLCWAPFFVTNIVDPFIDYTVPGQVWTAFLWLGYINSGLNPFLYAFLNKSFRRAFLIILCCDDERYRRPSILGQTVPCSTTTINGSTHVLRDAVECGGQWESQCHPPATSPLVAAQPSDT

| Compound | IC50 [nM] |
| --- | --- |
| COCCCCN1CC[C@@H](CNC(=O)c2cc(N)c(Cl)c3c2OCCO3)[C@H](O)C1 [compound 29] | 11 |
| COc1cc2c(c(C(=O)NC[C@@H]3CCN(CCCC#N)C[C@H]3O)c1)OCCCO2 [compound 128] | 16.6 |
| CCCNc1cc2c(c(C(=O)NC[C@@H]3CCN(CCCC#N)C[C@H]3O)c1)OCCCO2 [compound 131] | 135 |
| Nc1cc2c(c(C(=O)NC[C@@H]3CCN(CCCOC4CCCCC4)C[C@H]3O)c1)OCCCO2 [compound 49] | 25.7 |
| Nc1cc2c(c(C(=O)NC[C@@H]3CCN(CC4CCCO4)C[C@H]3O)c1)OCCO2 (stereo partly drawn) [compound 22] | 17.8 |
| CNc1cc2c(c(C(=O)NC[C@@H]3CCN(CCOCCO)C[C@H]3O)c1)OCCO2 [compound 84] | 93.3 |
| Nc1cc(C(=O)NC[C@@H]2CCN(CCCO)C[C@H]2O)c2c(c1Br)OCCCO2 [compound 147] | 43.7 |
| Nc1cc2c(c(C(=O)NC[C@@H]3CCN(CCCOC4CCCCC4)C[C@H]3O)c1)OCCO2 [compound 85] | 6.31 |
| Nc1cc(C(=O)NC[C@@H]2CCNC[C@H]2O)c2c(c1Br)OCCCO2 [compound 142] | 1150 |
| COCCCN1CC[C@@H](CNC(=O)c2cc(N)c(Cl)c3c2OCCCO3)[C@H](O)C1 [compound 47] | 31.6 |
| CC1(CCCN2CC[C@@H](CNC(=O)c3cc(N)cc4c3OCCCO4)[C@H](O)C2)OCCO1 [compound 59] | 51.3 |
| COCCCN1CC[C@@H](CNC(=O)c2cc(COC)cc3c2OCCCO3)[C@H](O)C1 [compound 124] | 26.9 |
| Nc1cc(C(=O)NC[C@@H]2CCNC[C@H]2O)c2c(c1Br)OCCO2 [compound 133] | 537 |
| N#CCc1cc2c(c(C(=O)NC[C@@H]3CCN(CCC4OCCO4)C[C@H]3O)c1)OCCCO2 [compound 123] | 43.7 |
| CNc1cc2c(c(C(=O)NC[C@@H]3CCN(CCCOC(C)C)C[C@H]3O)c1)OCCO2 [compound 36] | 21.4 |
| Nc1cc(C(=O)NC[C@@H]2CCN(CCC3OCCO3)C[C@H]2O)c2c(c1Br)OCCO2 [compound 141] | 43.7 |
| COc1cc2c(c(C(=O)NC[C@@H]3CCNC[C@H]3O)c1)OCCCO2 [compound 88] | 257 |
| Nc1cc(C(=O)NC[C@@H]2CCN(CCCO)C[C@H]2O)c2c(c1Cl)OCCO2 [compound 7] | 17.8 |
| CNc1cc2c(c(C(=O)NC[C@@H]3CCN(CCOC)C[C@H]3O)c1)OCCO2 [compound 35] | 44.7 |
| Nc1cc(C(=O)NC[C@@H]2CCN(CCCOC3CCCCC3)C[C@H]2O)c2c(c1Cl)OCCO2 [compound 31] | 3.31 |
| CNc1cc2c(c(C(=O)NC[C@@H]3CCN(CCCCO)C[C@H]3O)c1)OCCO2 [compound 97] | 15.8 |
| CCCCN1CC[C@@H](CNC(=O)c2cc(N)c(Br)c3c2OCCO3)[C@H](O)C1 [compound 153] | 13.8 |
| Nc1cc(C(=O)NC[C@@H]2CCN(CCOCCO)C[C@H]2O)c2c(c1Cl)OCCO2 [compound 70] | 89.1 |
| CC1(CCCN2CC[C@@H](CNC(=O)c3cc(N)c(Cl)c4c3OCCO4)[C@H](O)C2)OCCO1 [compound 43] | 13.2 |
| CCCCN1CC[C@@H](CNC(=O)c2cc(N)cc3c2OCCCO3)[C@H](O)C1 [compound 110] | 19.1 |
| CC(=O)CCCN1CC[C@@H](CNC(=O)c2cc(N)c(Cl)c3c2OCCCO3)[C@H](O)C1 [compound 80] | 7.59 |
| CNc1cc2c(c(C(=O)NC[C@@H]3CCN(CCCOC)C[C@H]3O)c1)OCCO2 [compound 115] | 16.2 |
| CNCCCCN1CC[C@@H](CNC(=O)c2cc(N)c(Cl)c3c2OCCO3)[C@H](O)C1 [compound 89] | 30.9 |
| Cc1nccnc1NCCN1CC[C@@H](CNC(=O)c2cc(N)c(Cl)c3c2OCCCO3)[C@H](O)C1 [compound 92] | 12 |
| N#CCCCN1CC[C@@H](CNC(=O)c2cc(N)c(Cl)c3c2OCCO3)[C@H](O)C1 [compound 15] | 30.2 |

More lines, now with the values ahead:

| IC50 [nM] | Compound |
| --- | --- |
| 30.9 | Cc1cc2c(c(C(=O)NC[C@@H]3CCN(CCCC(=O)O)C[C@H]3O)c1)OCCCO2 [compound 192] |
| 81.3 | CCCCNc1cc2c(c(C(=O)NC[C@@H]3CCN(CCCOC)C[C@H]3O)c1)OCCCO2 [compound 157] |
| 4.27 | N#Cc1cc2c(c(C(=O)NC[C@@H]3CCN(CCCC(N)=O)C[C@H]3O)c1)OCCCO2 [compound 252] |
| 8.51 | CCCCN1CC[C@@H](CNC(=O)c2cc(N)c(Br)c3c2OCCCO3)[C@H](O)C1 [compound 181] |
| 3.16 | COCCCN1CC[C@@H](CNC(=O)c2cc(C)cc3c2OCCCO3)[C@H](OC)C1 [compound 206] |
| 12.3 | CNCCCCN1CC[C@@H](CNC(=O)c2cc(OC)cc3c2OCCCO3)[C@H](O)C1 [compound 199] |
| 0.355 | Cc1cc2c(c(C(=O)NC[C@@H]3CCN(CCCc4ccc(O)cc4)C[C@H]3O)c1)OCCCO2 [compound 233] |
| 0.813 | Cc1cc2c(c(C(=O)NC[C@@H]3CCN(CCCOC(C)C)C[C@H]3O)c1)OCCCO2 [compound 212] |
| 0.224 | COCCCCN1CC[C@@H](CNC(=O)c2cc(C)cc3c2OCCO3)[C@H](O)C1 [compound 248] |
| 1.2 | Cc1cc2c(c(C(=O)NC[C@@H]3CCN(CCOc4ccc(S(N)(=O)=O)cc4)C[C@H]3O)c1)OCCCO2 [compound 198] |
| 1.78 | Cc1cc2c(c(C(=O)NC[C@@H]3CCN(CCCC(=O)N4CCCC4)C[C@H]3O)c1)OCCCO2 [compound 224] |
| 1.45 | Cc1cc2c(c(C(=O)NC[C@@H]3CCN(CCCS(C)(=O)=O)C[C@H]3O)c1)OCCO2 [compound 237] |
| 85.1 | CCCCN1CC[C@@H](CNC(=O)c2cc(NCC)cc3c2OCCCO3)[C@H](O)C1 [compound 161] |
| 0.759 | Cc1cc2c(c(C(=O)NC[C@@H]3CCN(CCCOC(=O)N4CCCC4)C[C@H]3O)c1)OCCCO2 [compound 250] |
| 0.794 | CCCCN1CC[C@H](CNC(=O)c2cc(C)cc3c2OCCCO3)[C@H](O)C1 [compound 242] |
| 19.5 | Cc1cc2c(c(C(=O)NC[C@H]3CCN(CCCC#N)C[C@H]3O)c1)OCCCO2 [compound 241] |
| 3160 | CCCCNc1cc2c(c(C(=O)NC[C@@H]3CCNC[C@H]3O)c1)OCCCO2 [compound 154] |
| 3.09 | CO[C@@H]1CN(CCCNS(C)(=O)=O)CC[C@H]1CNC(=O)c1cc(C)cc2c1OCCCO2 [compound 221] |
| 3.02 | CNCCCCN1CC[C@@H](CNC(=O)c2cc(C)cc3c2OCCCO3)[C@H](O)C1 [compound 173] |
| 37.2 | COCCCN1CC[C@@H](CNC(=O)c2cc(C#N)cc3c2OCCCO3)[C@H](OC)C1 [compound 235] |
| 1.48 | Cc1cc2c(c(C(=O)NC[C@@H]3CCN(CCCCC(N)=O)C[C@H]3O)c1)OCCCO2 [compound 217] |
| 832 | Nc1cc(C(=O)NC[C@@H]2CCNC[C@H]2O)c2c(c1Cl)OCCCO2 [compound 188] |
| 32.4 | CC(C)Nc1cc2c(c(C(=O)NC[C@@H]3CCN(CCC4OCCO4)C[C@H]3O)c1)OCCCO2 [compound 169] |
| 1.62 | CNCCCCN1CC[C@@H](CNC(=O)c2cc(C#N)cc3c2OCCCO3)[C@H](O)C1 [compound 171] |
| 44.7 | CNCCCCN1CC[C@@H](CNC(=O)c2cc(CC#N)cc3c2OCCCO3)[C@H](O)C1 [compound 216] |
| 0.776 | Cc1cc2c(c(C(=O)NC[C@@H]3CCN(CCCCNc4nccnc4C)C[C@H]3O)c1)OCCCO2 [compound 231] |
| 3.72 | CC(=O)CCCN1CC[C@@H](CNC(=O)c2cc(C#N)cc3c2OCCCO3)[C@H](O)C1 [compound 223] |
